Assay results from US10766890B2, “Hepatitis B core protein modulators” (Assembly Biosciences, Inc., priority 2015, dated 2020).

Assays:
AD38 cells = test: Viability of AD38 cells, Promega CellTiter-Glo; format: cell-based; settings: 10 μM compound, 6 days, CellTiter-Glo luminescence, controls being 100%
Method: (§1) Example 63: Assay Measuring Activity of Compounds on Viral Production in and on Viability of AD38 Cells
(§2) AD38 cells were then re-suspended with 10 mL of Treatment Medium and counted. Wells of a collagen coated 96-well NUNC microtiter plate were seeded at 50,000/well in 180 μL of Treatment Medium, and 20 μL of in treatment media with either 10% DMSO (Control) or a 10× solution of compound in 10% DMSO was added. Plates were incubated for 6 days at 37° C.
At the end of compound treatment period cell viability was assessed using a Promega CellTiter-Glo protocol. All supernatant was removed the previously treated 96-well microtiter plate, and 50 μL Tetracycline-free treatment medium (DMEM/F12 (1:1), 1×Pen/step (cat#: 30-002-CL, Mediatech, Inc), with 2% FBS, Tet-system approved (cat#: 631106, Clontech), and 1% DMSO was added back to each well. Another 50 μL of CellTiter-Glo reagent solution (Promega, G7573) was then added at room temperature and the contents mixed for 2 minutes on an orbital shaker to induce cell lysis. This was followed by incubation at room temperature for 10 minutes to stabilize the luminescent signal. The luminescence was recorded for 0.2 seconds per well on a Tecan multimode platereader (Infinite M1000 pro). The luminescent signal from each well was normalized against that of untreated (DMSO) control wells. All results in Table 3 were reported with percent viability (with controls being 100%).

HBV = test: Viral load production in AD38 cells, quantitative PCR of the core sequence in supernatant; format: cell-based; settings: 10 μM compound, 6 days at 37° C., supernatant qPCR vs DMSO control; for activity at 10 µM: Hepatitis B virus, 144 h, read-out: AD38 Viral Load (%) (VL with cmpd/VL in DMSO control) at 10 μM
Method: as §1, §2
Viral load production was assayed by quantitative PCR of the core sequence. […] The PCR mixture was incubated at 45° C. for 5 minutes, then 95° C. for 10 min, followed by 40 cycles of 10 seconds at 95° C. and 20 seconds at 60° C. Viral load was quantitated against known standards by using ViiA™ 7 Software. Viral load in the supernatant from wells with treated cells were compared against viral load in supernatant from DMSO control wells (≥3 per plate).

Compound	AD38 Viability Normalized Result (cmpd/DMSO %) at 10 μM (AD38 cells)	AD38 Viral Load (%) (VL with cmpd/VL in DMSO control) at 10 μM (HBV)	activity at 10 µM (HBV)
11-oxo-N-(4-(4-((2,2,2-trifluoroacetyl)-λ^4-azanyl)butoxy) phenethyl)-10,11-dihydrodibenzo[b, f][1,4]thiazepine-8-carboxamide 5,5-dioxide [Compound 482]	101%	16.3%	
O=C(NCCOc1ccc(F)cc1)c1ccc2c(c1)NC(=O)c1ccccc1S2(=O)=O [Compound 469]	100%		4.1%
O=C(NCC(c1ccccc1)N1CCCC1)c1ccc2c(c1)NC(=O)c1ccccc1S2(=O)=O (stereo not shown) [Compound 471]	103%		72.6%
O=C(NCCC(c1ccccc1)N1CCCC1)c1ccc2c(c1)NC(=O)c1ccccc1S2(=O)=O (stereo not shown) [Compound 472]	105%		32.6%
O=C(NCCc1ccc(-c2cnn[nH]2)cc1)c1ccc2c(c1)NC(=O)c1ccccc1S2(=O)=O [Compound 475, N-(4-(1H-1,2,3-triazol-5-yl)phenethyl)-11-oxo-10,11-dihydrodibenzo[b,f][1,4]thiazepine-8-carboxamide 5,5-dioxide]	96%		0.7%
O=C(NCCCCOc1ccc(CCNC(=O)c2ccc3c(c2)NC(=O)c2ccccc2S3(=O)=O)cc1)OCc1ccccc1 [Compound 481]	91%		0.5%
CN1c2ccc(C(=O)NCCc3ccc(S(=O)(=O)N(C)C)cc3)cc2NC(=O)c2ccccc21 [Compound 498]	76%		13.8%
CCN1c2ccc(C(=O)NCCc3ccc(S(=O)(=O)N(C)C)cc3)cc2NC(=O)c2ccccc21 [Compound 501]	91%		5.5%
O=C(NCCc1ccc(-c2ccccc2)cc1)c1ccc2c(c1)NC(=O)c1ccccc1N2 [Compound 508]	103%		59.1%
CN(C)S(=O)(=O)c1ccc(CCNC(=O)c2ccc3c(c2)NC(=O)c2ccccc2N3)cc1 [Compound 510]	92%		21.4%
CCC(CNC(=O)c1ccc2c(c1)NC(=O)c1ccccc1S2(=O)=O)c1ccccc1 (stereo not shown) [Compound 530]	92%		5%
O=C(NCCc1ccc(-c2ccc(F)cc2)cc1)c1ccc2c(c1)NC(=O)c1ccccc1S2(=O)=O [Compound 533]	3%		0.6%
O=C(NCc1ccc(-c2cncnc2)cc1)c1ccc2c(c1)NC(=O)c1ccccc1S2 [Compound 537]	100%		51.5%
O=C(NCCc1ccc(-c2ccc(F)cc2)cc1)c1ccc2c(c1)NC(=O)c1ccccc1S2 [Compound 538]	62%		8.1%
O=C(NCc1ccc(-c2ccccc2)cc1)c1ccc2c(c1)NC(=O)c1ccccc1S2(=O)=O [Compound 563]	59%		0.9%
O=C(NCc1ccc(-c2ccc(F)cc2)cc1)c1ccc2c(c1)NC(=O)c1ccccc1S2(=O)=O [Compound 564]	29%		0.9%
O=C(NCc1cccc(-c2ccccc2)c1)c1ccc2c(c1)NC(=O)c1ccccc1S2(=O)=O [Compound 565]	105%		1.5%
O=C(NCc1cccc(-c2ccc(F)cc2)c1)c1ccc2c(c1)NC(=O)c1ccccc1S2(=O)=O [Compound 566]	95%		0.6%
O=C(NCc1ccc(-n2nccn2)cc1)c1ccc2c(c1)NC(=O)c1ccccc1S2(=O)=O [Compound 567]	104%		3.3%
O=C(NCc1cccc(-n2nccn2)c1)c1ccc2c(c1)NC(=O)c1ccccc1S2(=O)=O [Compound 568]	101%		3%
O=C(NCc1ccc(-c2cn(Cc3ccccc3)nn2)cc1)c1ccc2c(c1)NC(=O)c1ccccc1S2(=O)=O [Compound 569-A]	97%		1.5%

Compound	AD38 Viability Normalized Result (cmpd/DMSO %) at 10 μM (AD38 cells)	AD38 Viral Load (%) (VL with cmpd/VL in DMSO control) at 10 μM (HBV)	activity at 10 µM (HBV)
O=C(NCc1ccc(-c2c[nH]nn2)cc1)c1ccc2c(c1)NC(=O)c1ccccc1S2(=O)=O [Compound 569]	100%		2.8%
O=C(NCc1cccc(-c2cnn[nH]2)c1)c1ccc2c(c1)NC(=O)c1ccccc1S2(=O)=O [Compound 570]	112%		8.7%
O=C(NCc1ccc(-c2ccc(O)cc2)cc1)c1ccc2c(c1)NC(=O)c1ccccc1S2(=O)=O [Compound 638]	7%		8.6%
O=C(NCc1ccc(-c2cccc(O)c2)cc1)c1ccc2c(c1)NC(=O)c1ccccc1S2(=O)=O [Compound 639]	34%		4.5%
C[C@H](NC(=O)c1ccc2c(c1)NC(=O)c1ccccc1S2(=O)=O)c1ccc(-c2ccc(O)cc2)cc1 [Compound 640]	1%		4.4%
C[C@@H](NC(=O)c1ccc2c(c1)NC(=O)c1ccccc1S2(=O)=O)c1ccc(-c2ccc(O)cc2)cc1 [Compound 643]	104%		30%
O=C(NCc1ccc(-c2ccc3[nH]cnc3c2)cc1)c1ccc2c(c1)NC(=O)c1ccccc1S2(=O)=O [Compound 644]	89%		31.2%
CN(C)c1ccc(-c2ccc(CNC(=O)c3ccc4c(c3)NC(=O)c3ccccc3S4(=O)=O)cc2)cc1 [Compound 646]	92%		6%
O=C(NCc1ccc(-c2ccc3[nH]ccc3c2)cc1)c1ccc2c(c1)NC(=O)c1ccccc1S2(=O)=O [Compound 647]	102%		0.4%
Cl.NCc1ccc(-c2ccc(CNC(=O)c3ccc4c(c3)NC(=O)c3ccccc3S4(=O)=O)cc2)cc1 [Compound 652, N-((4′-(aminomethyl)-[1,1′-biphenyl]-4-yl)methyl)-11-oxo-10,11-dihydrodibenzo[b,f][1,4]thiazepine-8-carboxamide 5,5-dioxide hydrochloride]	86%		36.4%
N#Cc1ccc(-c2ccc(CNC(=O)c3ccc4c(c3)NC(=O)c3ccccc3S4(=O)=O)cc2)cc1 [Compound 652-A, N-((4′-cyano-[1,1′-biphenyl]-4-yl)methyl)-11-oxo-10,11-dihydrodibenzo[b,f][1,4]thiazepine-8-carboxamide 5,5-dioxide]	36%		4.6%
CN(C)CCOc1ccc(-c2ccc(CNC(=O)c3ccc4c(c3)NC(=O)c3ccccc3S4(=O)=O)cc2)cc1 [Compound 657]	104%		19.4%
CN(Cc1ccc(-c2ccc(O)cc2)cc1)C(=O)c1ccc2c(c1)NC(=O)c1ccccc1S2(=O)=O [Compound 662]	34%		20.8%
N#Cc1cccc(-c2ccc(CNC(=O)c3ccc4c(c3)NC(=O)c3ccccc3S4(=O)=O)cc2)c1 [Compound 676-A]	98%		5.9%
O=C(NCc1ccc(-c2ccc3[nH]ncc3c2)cc1)c1ccc2c(c1)NC(=O)c1ccccc1S2(=O)=O [Compound 678]	76%		1.4%
CN(C)CCOc1cccc(-c2ccc(CNC(=O)c3ccc4c(c3)NC(=O)c3ccccc3O4)cc2)c1 [Compound 717]	0%		170%
O=C(NCc1ccc(-c2ccc(O)cc2)cc1)c1ccc2c(c1)NC(=O)c1ccccc1O2 [Compound 719]	110%		4.6%
O=C(NCc1ccc(-c2cccc(O)c2)cc1)c1ccc2c(c1)NC(=O)c1ccccc1O2 [Compound 720]	102%		48.5%
O=C(NCc1ccc(-c2ccc(O)cc2)c(Cl)c1)c1ccc2c(c1)NC(=O)c1ccccc1O2 [Compound 721]	29%		9.7%
O=C(NCc1ccc(-c2ccc(O)cc2Cl)cc1)c1ccc2c(c1)NC(=O)c1ccccc1O2 [Compound 722]	29%		8.8%
